What was measured:
[1] = system: leucineaminopeptidase (LAP); assay: Effect on other metalloenzymes: leucineaminopeptidase; format: biochemical; conditions: at 50,000 ng/ml; porcine kidney microsomes enzyme
Protocol: (§1) DHP-I is a metalloenzyme with the zinc atom. To clarify the specific inhibitors activity of the test compound on DHP-I, the effect of the test compound on other metalloenzymes containing zinc, carboxypeptidaseA (CPaseA), leucineaminopeptidase (LAP), was determined.
Activity of LAP from porcine kidney microsomes (Type IV-S, made by Sigma Chemical Co.) was measured by . mean of using L-leucine-p-nitroanilide (made by Peptide Institute, Inc.) as substrate. Enzymatic hydrolysis was followed by observing the increase in optical density at 405 nm.

[2] = target: T1, DHP-I (renal dipeptidase) (Sus scrofa, UniProt P22412); assay: Inhibition of DHP-I activity, porcine DHP-I; format: biochemical; conditions: glycyldehydrophenylalanine substrate
T1 construct: Fresh kidney cortex was cut into pieces and homogenized in a Waring blender; from tissue; host or cells: kidney cortex (pig), n-butanol extraction, ammonium sulfate fraction 50-75%
T1 sequence (P22412 17-409): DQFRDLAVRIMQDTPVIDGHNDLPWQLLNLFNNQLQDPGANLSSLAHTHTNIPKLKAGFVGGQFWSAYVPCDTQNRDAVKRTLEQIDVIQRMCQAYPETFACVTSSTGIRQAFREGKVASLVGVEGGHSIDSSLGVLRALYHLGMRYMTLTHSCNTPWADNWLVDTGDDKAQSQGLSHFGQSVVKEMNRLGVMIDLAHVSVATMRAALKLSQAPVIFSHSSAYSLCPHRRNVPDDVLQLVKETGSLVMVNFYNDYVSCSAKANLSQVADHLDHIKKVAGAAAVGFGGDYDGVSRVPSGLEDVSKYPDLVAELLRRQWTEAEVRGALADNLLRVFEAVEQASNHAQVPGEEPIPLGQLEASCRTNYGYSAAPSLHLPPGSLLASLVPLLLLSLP
Protocol: (§2) DHP-I (renal dipeptidase) were partially purified from several species of animals by B. J. Cambell (Methods in Enzymology, (1970) Vol. 19,722). Fresh kidney cortex was cut into pieces and homogenized in a Waring blender with an equal volume of 1/15M phosphate buffer (pH 8.0). The homogenate was filtrated on gauze to remove cellular debris. n-Butanol chilled to 0° C., was added to a concentration of 20% by volume with rapid stirring. The suspension was stirred with a magnetic stirrer for overnight at 4° C. to dissolve DHP-I. The resultant emulsion was then dialyzed against several changes of distilled water. To the dialyzate was added solid ammonium sulfate to 50% saturation at 0° C. The precipitate formed was collected by centrifugation at 4500 g for 1 hour and discarded. Solid ammonium sulfate was then added to the supernatant to 75% saturation, the suspension was centrifuged at 10,000 g for 1 hour. The sediment was dissolved in a small volume of distilled water and dialyzed against distilled water. […]
(§3) Activity of DHP-I was measured by mean of using the unsaturated dipeptide, glycyldehydrophenylalanine as substrate. […] Inhibitory effect of the test compound on DHP-I activity was measured. Inhibition percent, I(%), was calculated as followed, I(%)=(E-T)/Ex100, where E was DHP-I activity without test compound (Control), T was DHP-I activity with test compound.

[3] = target: T2, DHP-I (renal dipeptidase) (Oryctolagus cuniculus, UniProt P31429); assay: Inhibition of DHP-I activity, rabbit DHP-I; format: biochemical; conditions: glycyldehydrophenylalanine substrate
T2 construct: Fresh kidney cortex was cut into pieces and homogenized in a Waring blender; from tissue; host or cells: kidney cortex (rabbit), n-butanol extraction, ammonium sulfate fraction 50-75%
T2 sequence (P31429 17-410): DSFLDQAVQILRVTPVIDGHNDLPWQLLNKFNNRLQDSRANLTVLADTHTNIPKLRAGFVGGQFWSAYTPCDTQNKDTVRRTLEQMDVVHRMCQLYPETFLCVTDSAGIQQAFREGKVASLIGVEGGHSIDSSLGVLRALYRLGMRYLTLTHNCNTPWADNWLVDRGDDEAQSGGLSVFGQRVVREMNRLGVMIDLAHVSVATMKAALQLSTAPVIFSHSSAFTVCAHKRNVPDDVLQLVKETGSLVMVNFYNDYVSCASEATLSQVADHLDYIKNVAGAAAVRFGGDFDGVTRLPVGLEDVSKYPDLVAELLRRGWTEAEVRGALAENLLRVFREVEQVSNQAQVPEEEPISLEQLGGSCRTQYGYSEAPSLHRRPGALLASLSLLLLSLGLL
Protocol: as §2, §3

[4] = system: carboxypeptidaseA (CPaseA); assay: Effect on other metalloenzymes: carboxypeptidase A; format: biochemical; conditions: at 50,000 ng/ml; bovine pancreas enzyme
Protocol: as §1
Activity of CPaseA from bovine pancreas (Type II-DEF, made by Sigma Chemical Co.) was measured by mean of using carbobenzoxyglycyl-L-phenylalanine (made by Peptide Institute, Inc., Osaka, Japan) as substrate. Enzymatic hydrolysis was followed by observing the fall in optical density at 224 nm.

ICR mice = assay: Acute toxicity, single intravenous injection; format: in vivo; conditions: 1 g/kg single intravenous, female, 4 weeks old
Protocol: The acute toxicity of the test compound No.1 was determined to ICR mice (female, 4 weeks old) by a single intravenous injection.

Escherichia coli = assay: Antimicrobial activity, paper disk diffusion method; format: cell-based; conditions: at 1 mg/ml
Protocol: (§4) Antimicrobial activity of the test compounds No.1 and No.2. was measured by paper disk diffusion method in a conventional manner.

Staphylococcus aureus = assay: as above; format: cell-based; conditions: at 1 mg/ml
Protocol: as §4

[5] = Urinary recovery of carbapenem antibiotics combined with DHP-I inhibitor; format: in vivo, ICR mice; conditions: for dose excreted: mouse, urine, iv, 1 mg/kg, antibiotic 1 mg/kg i.v., ICR mice
Protocol: The effect of the test compound No.1 on urinary recovery of carbapenem antibiotics simultaneously administrated was determined. Urinary recovery percent was calculated by measuring a quantity of antibiotics excreted in urine using bioassay, when antibiotics and DHP-I inhibitor were combined and intravenously injected to ICR mice (female, 4 weeks old, 4 animals per group).

Staphylococcus aureus 47 = assay: Protective effect of carbapenem antibiotic combined with DHP-I inhibitor on mice infection; format: in vivo; conditions: Test compound No. 4 alone 10 mg/kg s.c., 1 hour after challenge; ICR mice
Protocol: The combined effect of DHP-I inhibitor of this invention with the carbapenem antibiotic, on mice infection was determined. ICR mice (female, 4 weeks old, 5 animals per group) were intraperitoneally injected with 4×10^8 Staphylococcus aureus 47 suspended in 5% mucin. Combined therapies were administrated subcutaneously 1 hour after challenge.

Solubility = format: physicochemical; conditions: disodium salt
[6] = literature; cited from earlier work
[7] = with Test compound No. 1, 0.5 mg/kg
[8] = with Test compound No. 1, 1 mg/kg
[9] = with Test compound No. 1, 2 mg/kg

## CC(CC(=O)O)C(O)(C(=O)O)C(=O)NO (centres unmarked) [Test compound No. 1]
[1]
  Inhibitory effect on LAP: no inhibitory effect
[2]
  IC50: 4.97 nM
[3]
  IC50: 49.7 nM
[4]
  Inhibitory effect on CPaseA: no inhibitory effect
ICR mice
  Acute toxicity, toxic symptom: No toxic symptom was observed
Escherichia coli
  Antimicrobial activity: no antimicrobial activity
Staphylococcus aureus
  Antimicrobial activity: no antimicrobial activity
[5]; effect of inhibitor on test compound No. 3 and 4 (1 mg/kg), in words
  Effect on urinary recovery of the carbapenem antibiotics: significantly increased urinary recovery

## O=C(O)CCC(O)(C(=O)O)C(=O)NO (centres unmarked) [Test compound No. 2]
[1]
  Inhibitory effect on LAP: no inhibitory effect
[2]
  IC50: 531 nM
[3]
  IC50: 2410 nM
[4]
  Inhibitory effect on CPaseA: no inhibitory effect
Escherichia coli
  Antimicrobial activity: no antimicrobial activity
Staphylococcus aureus
  Antimicrobial activity: no antimicrobial activity

## C[C@@H](O)[C@H]1C(=O)N2C(C(=O)O)=C(SCCNC=N)CC12 (some centres unmarked) [Test compound No. 3]
[5]; inhibitor: None
  dose excreted: 44.1 ± 0.6%
[5]; [7]
  dose excreted: 66.1 ± 3%
[5]; [8]
  dose excreted: 63.8 ± 7.3%
[5]; [9]
  dose excreted: 65.4 ± 9.5%

## C[C@@H](O)[C@H]1C(=O)N2C(C(=O)O)=C(S[C@@H]3CN[C@H](COC(N)=O)C3)CC12 (some centres unmarked) [Test compound No. 4]
[5]; inhibitor: None
  dose excreted: 29.3 ± 2.8%
[5]; [7]
  dose excreted: 51.4 ± 3.9%
[5]; [8]
  dose excreted: 57.8 ± 1.3%
[5]; [9]
  dose excreted: 71.9 ± 9.5%
Staphylococcus aureus 47
  Survived/Treated (Test mice): 0/5

## CC(CC(=O)O)C(O)(C(=O)O)C(=O)NO (centres unmarked) [WS-1358A, 2-hydroxy-2-(hydroxycarbamoyl)-3-methylglutaric acid]
Solubility
  Solubility in acetone: Insoluble
  Solubility in chloroform: Insoluble
  Solubility in ethanol: Sparingly Soluble
  Solubility in ethyl acetate: Insoluble
  Solubility in hexane: Insoluble
  Solubility in methanol: Sparingly Soluble
  Solubility in water: Soluble

## O=C(O)CCC(O)(C(=O)O)C(=O)NO (centres unmarked) [WS-1358B]
Solubility
  Solubility in acetone: Insoluble
  Solubility in chloroform: Insoluble
  Solubility in ethanol: Sparingly Soluble
  Solubility in ethyl acetate: Insoluble
  Solubility in hexane: Insoluble
  Solubility in methanol: Sparingly Soluble
  Solubility in water: Soluble

## CC1(C)C[C@@H]1C(=O)N/C(=C\CCCCSC[C@H](N)C(=O)O)C(=O)O [cilastatin]
[6]
  Urinary recoveries of the carbapenem antibiotics (e.g. imipenem): improving urinary recoveries

Source: patent publication US5061730A, “Carboxylic acid derivatives” (Fujisawa Pharmaceutical Co., Ltd., priority 1987, dated 1991)
